From patent publication US20250263395A1, “COMPOUNDS THAT MEDIATE PROTEIN DEGRADATION AND METHODS OF USE THEREOF” (Monte Rosa Therapeutics AG, priority 2022, published 2025) come the findings set out here.

Molecules are shown by their SMILES.

The target of one experiment is CDK2 (Homo sapiens (Human), UniProt P24941). The experiment in a line: CDK2 NanoBiT assay (HiBiT-tagged CDK2 degradation). To be noted: C-terminal HiBiT tag on CDK2, LgBiT, 24 hours; for Dmax: HEK293, HEK293 clonal line. The experiment is classed as cell-based. As for the experimental part: Example 145. NanoBiT Assay
A HEK293 clonal line with a CRISPR knock-in C-terminal HiBiT tag on CDK2 and stably expressing LgBiT protein was obtained from Promega (Madison, WI). Cells were plated at 5000 cells per well using Multiflo (BioTek) in 384-well white solid bottom plates (Corning, 3570BC) in 25 ul volume in DMEM media (DMEM, high glucose, HEPES, no phenol red (ThermoFisher Scientific, 21063029)) containing 10% FBS (Corning, 35-075-CV), 1% Peniciliin/Streptomycin ((ThermoFisher Scientific, 15140-122), and 1% Endurazine (Nano-Glo Endurazine Live Cell Substrate (Promega, N2571)). Cells were incubated for 16 hours at 37 C, 5% CO2. 75 nL of a compound at 30 μM were dosed into the plate using an Echo® 650 liquid handler (Labcyte). Cells were incubated at 37° C., 5% CO2 for 24 hours and then signal was read on a Pherastar FSX using “LUM plus” optic module.
Analysis was performed in Scinamic (Scinamic, Cambridge, MA). Luminescence response (R) was calculated by the formula: response=100*(S−N)/(P−N) where S is the signal of the well, N and P the mean negative and positive control values respectively of the same plate. The luminescence response was then fitted in Scinamic using a 3-parameter agonist logistic fit (hillslope=1, EC50>0, top/bottom unconstrained).
(With HiBiT, luminescence reflects the tagged protein that the partner subunit can reach.)

A further experiment has as its target CRBN-DDB1 (Homo sapiens (Human), UniProt Q96SW2). The experiment is described as follows: CRBN HTRF assay (Cy5-Thalidomide probe displacement). To be noted: CRBN-DDB1 2.5 nM, Cy5-Thalidomide 100 nM, 30 min; Ki from geometric mean IC50 by Cheng-Prusoff. In kind it is binding. As for the experimental part:
Compound activity was monitored in a Homogenous Time-Resolved Fluorescence (HTRF) assay using 1-[5-({2-[2-(2-{[2-(2,6-dioxopiperidin-3-yl)-1,3-dioxo-2,3-dihydro-1H-isoindol-4-yl]oxy}acetamido)ethoxy]ethyl}carbamoyl)pentyl]-3,3-dimethyl-2-[(1E,3E)-5-[(2E)-1,3,3-trimethyl-5-sulfo-2,3-dihydro-1H-indol-2-ylidene]penta-1,3-dien-1-yl]-3H-indol-1-ium-5-sulfonate as a fluorescent probe. Biochemical assays were conducted in Greiner white 384 well HiBase plates (Cat. No 784075-25) in 10 μL total volume. A one pot detection solution of CRBN-DDB1 (2.5 nM), Anti-His Terbium Cryptate Gold (1×, PerkinElmer Cat. #: 61HI2TLB), and Cy5-Thalidomide (100 nM, Tenova Cat.: T52461) was prepared in 20 mM HEPES, 20 mM NaCl, 0.2 mM TCEP, 0.2 mM EDTA, and 0.005% Tween20 was dispensed to each assay plate. Compounds were stored in dry, ambient temperatures at 10 mM. A 10-point, 1:3 dilution series was prepared from 10 mM stock concentrations in Echo-compatible LDV plates. 10 nL of each compound dilution series was dispensed into assays wells using an Echo 650 (Labcyte inc. USA). 10 nL of 10 mM Lenalidomide was transferred into the active-control wells for the assay and 10 nL of DMSO was transferred into the neutral-control wells. The assay was then allowed to incubate for 30 min at ambient temperature after transferring compound. Plate measurements were taken on a Pherastar FSX (BMG Labtech, Germany) using the HTRF Red filter (Ex. 337 nm, em1: 620 nm, em2: 665 nm) (Flashes: 50, Integration time: 60-400 us, Z-height: 10 mm, Ratio-multiplier: 10,000). The HTRF signal was then subsequently normalized to the neutral and active controls. Analysis and IC50 values were derived using KNIME analytics (KNIME Zurich) transformation and fitting within Collaborative Drug Discovery (Collaborative Drug Discovery USA). Ki was derived from the geometric mean of the IC50 values using the Cheng-Prustoff transformation.
On the technique in general: Time-resolved FRET reads energy transfer from a long-lived donor to a nearby acceptor.

CRBN-DDB1, sequence (Q96SW2 whole entry): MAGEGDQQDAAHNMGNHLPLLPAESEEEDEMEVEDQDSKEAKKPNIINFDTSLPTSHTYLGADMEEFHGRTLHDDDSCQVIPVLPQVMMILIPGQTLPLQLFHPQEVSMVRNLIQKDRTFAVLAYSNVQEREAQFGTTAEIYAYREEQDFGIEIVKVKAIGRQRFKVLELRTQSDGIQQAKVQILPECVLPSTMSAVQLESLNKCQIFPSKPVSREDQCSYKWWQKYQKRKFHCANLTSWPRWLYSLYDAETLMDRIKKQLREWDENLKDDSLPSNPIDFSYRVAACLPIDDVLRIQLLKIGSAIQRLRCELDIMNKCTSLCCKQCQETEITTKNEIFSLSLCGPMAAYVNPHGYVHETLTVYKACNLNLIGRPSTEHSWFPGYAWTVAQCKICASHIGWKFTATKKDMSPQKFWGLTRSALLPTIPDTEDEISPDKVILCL
CRBN-DDB1, sequence (Q16531 whole entry partner): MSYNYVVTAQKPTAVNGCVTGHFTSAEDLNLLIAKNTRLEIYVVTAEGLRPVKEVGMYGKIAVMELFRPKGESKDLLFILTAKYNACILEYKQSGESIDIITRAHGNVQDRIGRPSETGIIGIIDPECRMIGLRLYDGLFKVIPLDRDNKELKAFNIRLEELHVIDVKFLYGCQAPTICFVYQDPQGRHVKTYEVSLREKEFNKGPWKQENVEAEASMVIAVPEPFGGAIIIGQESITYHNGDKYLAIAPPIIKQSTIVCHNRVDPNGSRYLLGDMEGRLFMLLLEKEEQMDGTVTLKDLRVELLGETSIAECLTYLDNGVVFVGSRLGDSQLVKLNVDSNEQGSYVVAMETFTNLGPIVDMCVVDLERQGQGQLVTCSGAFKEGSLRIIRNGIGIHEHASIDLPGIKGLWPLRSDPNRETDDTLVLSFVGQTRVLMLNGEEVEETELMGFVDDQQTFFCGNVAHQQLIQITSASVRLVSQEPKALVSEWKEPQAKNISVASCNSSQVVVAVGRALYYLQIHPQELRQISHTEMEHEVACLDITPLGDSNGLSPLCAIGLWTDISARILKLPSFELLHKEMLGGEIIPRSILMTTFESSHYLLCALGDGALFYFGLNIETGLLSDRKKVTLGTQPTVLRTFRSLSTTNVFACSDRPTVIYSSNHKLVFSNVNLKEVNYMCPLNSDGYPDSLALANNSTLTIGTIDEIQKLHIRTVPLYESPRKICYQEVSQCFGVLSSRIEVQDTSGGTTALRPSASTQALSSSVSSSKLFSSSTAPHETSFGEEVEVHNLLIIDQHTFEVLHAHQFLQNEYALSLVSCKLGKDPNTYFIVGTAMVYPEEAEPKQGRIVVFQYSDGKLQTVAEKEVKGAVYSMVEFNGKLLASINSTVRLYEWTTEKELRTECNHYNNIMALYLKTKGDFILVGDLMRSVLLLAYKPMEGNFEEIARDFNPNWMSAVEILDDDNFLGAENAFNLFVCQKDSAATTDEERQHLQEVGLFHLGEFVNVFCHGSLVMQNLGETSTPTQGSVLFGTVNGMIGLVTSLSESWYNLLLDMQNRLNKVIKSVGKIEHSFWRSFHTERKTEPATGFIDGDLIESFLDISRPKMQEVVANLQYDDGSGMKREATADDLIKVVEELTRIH

What is called Dmax is the greatest extent of degradation seen. High values mean a fuller loss of target, low ones a partial loss of target. At CDK2, `O=C1CCC(c2c(F)cc(N3CC(NC(=O)OCC4CC5(CCC5)C4)C3)cc2F)C(=O)N1` (stereo not shown) [Compound 1, spiro[3.3]heptan-2-ylmethyl (1-(4-(2,6-dioxopiperidin-3-yl)-3,5-difluorophenyl)azetidin-3-yl)carbamate] registered a Dmax of more than 80%.

A word on the Ki: it is the equilibrium dissociation constant of an inhibitor or competing ligand from its target. A lower Ki goes with tighter binding. Consider `COc1c(N2CC(C)(NC(=O)OCC3CC4(CCC4)C3)C2)ccc(C2CCC(=O)NC2=O)c1F` (stereo not shown) [Compound 2, spiro[3.3]heptan-2-ylmethyl (1-(4-(2,6-dioxopiperidin-3-yl)-3-fluoro-2-methoxyphenyl)-3-methylazetidin-3-yl)carbamate], for which, on CDK2, the Dmax lay in the range of 50 to 80%. Besides, at CRBN-DDB1, the Ki was 100 to 1000 nM.

Take `O=C1CCC(c2c(F)cc(N3CC(NC(=O)OC[C@@H]4C[C@H]5CC[C@@H]4C5)C3)cc2F)C(=O)N1` (stereo partly drawn) [Compound 3, (1R,2R,4S)-bicyclo[2.2.1]heptan-2-ylmethyl (1-(4-(2,6-dioxopiperidin-3-yl)-3,5-difluorophenyl)azetidin-3-yl)carbamate]: the Dmax on CDK2 was more than 80%. The same compound gave a Ki at CRBN-DDB1 not above 100 nM.

Regarding `O=C1CCC(c2c(F)cc(N3CC(NC(=O)OC45CC(C(=O)c6ccccc6)(C4)C5)C3)cc2F)C(=O)N1` (stereo not shown) [Compound 4], the “CDK2 NanoBiT Dmax (%)” value on CDK2 (HEK293 clonal line) is listed as “D (D represents Dmax value of >80%)”. The compound also registered a Ki on CRBN-DDB1 not above 100 nM.

For `O=C1CCC(c2c(F)cc(N3CC(NC(=O)OC4CN(C(=O)N5Cc6ccccc6C5)C4)C3)cc2F)C(=O)N1` (stereo not shown) [Compound 5, 1-(isoindoline-2-carbonyl)azetidin-3-yl (1-(4-(2,6-dioxopiperidin-3-yl)-3,5-difluorophenyl)azetidin-3-yl)carbamate], the Dmax on CDK2 was in the range of 50 to 80%. The compound further returned a Ki at CRBN-DDB1 not above 100 nM.

Regarding `Cc1ccnc(N2CC(OC(=O)NC3CN(c4cc(F)c(C5CCC(=O)NC5=O)c(F)c4)C3)C2)c1` (stereo not shown) [Compound 6, 1-(4-methylpyridin-2-yl)azetidin-3-yl (1-(4-(2,6-dioxopiperidin-3-yl)-3,5-difluorophenyl)azetidin-3-yl)carbamate], the Dmax at CDK2 is 50 to 80%.

Turning to `Cn1nccc1N1CC(OC(=O)NC2CN(c3cc(F)c(C4CCC(=O)NC4=O)c(F)c3)C2)C1` (stereo not shown) [Compound 7, 1-(1-methyl-1H-pyrazol-5-yl)azetidin-3-yl (1-(4-(2,6-dioxopiperidin-3-yl)-3,5-difluorophenyl)azetidin-3-yl)carbamate], the Dmax on CDK2 lay in the range of 10 to 50%. For the same compound, the Ki at CRBN-DDB1 was not above 100 nM.

As for `CN(C(=O)N1CC(OC(=O)NC2CN(c3cc(F)c(C4CCC(=O)NC4=O)c(F)c3)C2)C1)c1cccc(Cl)c1` (stereo not shown) [Compound 8, 1-((3-chlorophenyl)(methyl)carbamoyl)azetidin-3-yl (1-(4-(2,6-dioxopiperidin-3-yl)-3,5-difluorophenyl)azetidin-3-yl)carbamate], the Dmax at CDK2 is more than 80%. Also, the Ki at CRBN-DDB1 was not above 100 nM.

In the case of `O=C1CCC(c2c(F)cc(N3CC(NC(=O)OC4CN(C(=O)N5CCc6ccccc65)C4)C3)cc2F)C(=O)N1` (stereo not shown) [Compound 9, 1-(indoline-1-carbonyl)azetidin-3-yl (1-(4-(2,6-dioxopiperidin-3-yl)-3,5-difluorophenyl)azetidin-3-yl)carbamate], the Dmax at CDK2 is more than 80%. In addition, the Ki at CRBN-DDB1 was not above 100 nM.

The compound `Cc1cccc(N(C)C(=O)N2CC(OC(=O)NC3CN(c4cc(F)c(C5CCC(=O)NC5=O)c(F)c4)C3)C2)c1` (stereo not shown) [Compound 10, 1-(methyl(m-tolyl)carbamoyl)azetidin-3-yl (1-(4-(2,6-dioxopiperidin-3-yl)-3,5-difluorophenyl)azetidin-3-yl)carbamate] registered a Dmax on CDK2 of more than 80%.

For `CN(C(=O)N1CC(OC(=O)NC2(C(F)(F)F)CN(c3cc(F)c(C4CCC(=O)NC4=O)c(F)c3)C2)C1)C1CC1` (stereo not shown) [Compound 11, 1-(cyclopropyl(methyl)carbamoyl)azetidin-3-yl (1-(4-(2,6-dioxopiperidin-3-yl)-3,5-difluorophenyl)-3-(trifluoromethyl)azetidin-3-yl)carbamate], at CDK2, the Dmax lay in the range of 50 to 80%. The compound also gave a Ki on CRBN-DDB1 not above 100 nM.

Turning to `CN(C(=O)N1CC(OC(=O)NC2(C)CN(c3cc(F)c(C4CCC(=O)NC4=O)c(F)c3)C2)C1)C1CC1` (stereo not shown) [Compound 12, 1-(cyclopropyl(methyl)carbamoyl)azetidin-3-yl (1-(4-(2,6-dioxopiperidin-3-yl)-3,5-difluorophenyl)-3-methylazetidin-3-yl)carbamate], the Dmax at CDK2 fell in the range of 50 to 80%. Further, on CRBN-DDB1, the Ki was not above 100 nM.

As to `COc1ccc(N(C)C(=O)N2CC(OC(=O)NC3CN(c4cc(F)c(C5CCC(=O)NC5=O)c(F)c4)C3)C2)cc1` (stereo not shown) [Compound 13, 1-((4-methoxyphenyl)(methyl)carbamoyl)azetidin-3-yl(1-(4-(2,6-dioxopiperidin-3-yl)-3,5-difluorophenyl)azetidin-3-yl)carbamate], the Dmax at CDK2 fell in the range of 50 to 80%. This compound also yielded a Ki at CRBN-DDB1 not above 100 nM.

On to `CN(C)C(=O)N1CC(OC(=O)NC2(C)CN(c3cc(F)c(C4CCC(=O)NC4=O)c(F)c3)C2)C1` (stereo not shown) [Compound 14, 1-(dimethylcarbamoyl)azetidin-3-yl (1-(4-(2,6-dioxopiperidin-3-yl)-3,5-difluorophenyl)-3-methylazetidin-3-yl)carbamate], for which the Dmax on CDK2 lay in the range of 10 to 50%. This compound came in with a Ki at CRBN-DDB1 not above 100 nM.

Compound `Cc1cc(N2CC(NC(=O)OC3CN(C(=O)N(C)C4CC4)C3)C2)cc(F)c1C1CCC(=O)NC1=O` (stereo not shown) [Compound 15, 1-(cyclopropyl(methyl)carbamoyl)azetidin-3-yl (1-(4-(2,6-dioxopiperidin-3-yl)-3-fluoro-5-methylphenyl)azetidin-3-yl)carbamate] yielded a Dmax at CDK2 of 50 to 80%. The compound further came in with a Ki on CRBN-DDB1 not above 100 nM.

Regarding `CN(C(=O)N1CC[C@H](OC(=O)NC2CN(c3cc(F)c(C4CCC(=O)NC4=O)c(F)c3)C2)C1)C1CC1` (stereo partly drawn) [Compound 16, (S)-1-(cyclopropyl(methyl)carbamoyl)pyrrolidin-3-yl (1-(4-(2,6-dioxopiperidin-3-yl)-3,5-difluorophenyl)azetidin-3-yl)carbamate], the Dmax on CDK2 lay in the range of 10 to 50%. In addition, the Ki on CRBN-DDB1 is not above 100 nM.

As for `O=C1CCC(c2c(F)cc(N3CC(NC(=O)OC4CN(C(=O)N5CCCC5)C4)C3)cc2F)C(=O)N1` (stereo not shown) [Compound 32], the Dmax at CDK2 fell in the range of 50 to 80%.

`N#Cc1c(N2CC(NC(=O)OCC3CC4(CCC4)C3)C2)ccc(C2CCC(=O)NC2=O)c1Cl` (stereo not shown) [Compound 85, spiro[3.3]heptan-2-ylmethyl (1-(3-chloro-2-cyano-4-(2,6-dioxopiperidin-3-yl)phenyl)azetidin-3-yl)carbamate] had a Dmax at CDK2 of 50 to 80%.

As to `Cc1ccc(C)c(N(C)C(=O)C23CC(OC(=O)NC4CN(c5cc(F)c(C6CCC(=O)NC6=O)c(F)c5)C4)(C2)C3)c1` (stereo not shown) [Compound 111], the greatest degradation seen (Dmax) at CDK2 lay within 50 to 80%.

On to `[2H]C([2H])([2H])N(C(=O)N1CC(OC(=O)NC2CN(c3cc(F)c(C4CCC(=O)NC4=O)c(F)c3)C2)C1)c1ccc(C)cc1` (stereo not shown) [Compound 118, 1-((methyl-d3)(p-tolyl)carbamoyl)azetidin-3-yl (1-(4-(2,6-dioxopiperidin-3-yl)-3,5-difluorophenyl)azetidin-3-yl)carbamate], for which the Ki on CRBN-DDB1 is not above 100 nM.

`[2H]C([2H])([2H])N(C(=O)N1CC(OC(=O)NC2CN(c3cc(F)c(C4CCC(=O)NC4=O)c(F)c3)C2)C1)c1ccc(Cl)cc1` (stereo not shown) [Compound 119, 1-((4-chlorophenyl)(methyl-d3)carbamoyl)azetidin-3-yl (1-(4-(2,6-dioxopiperidin-3-yl)-3,5-difluorophenyl)azetidin-3-yl)carbamate] displayed a Ki on CRBN-DDB1 not above 100 nM.
